Here are results for 1 compound from ChEMBL document CHEMBL5241138, “Inhibitors of Interleukin 4 Induced Protein 1 (IL4I1) as Potential Treatment for Cancer” (ACS Med Chem Lett, 2023).

For the experiment, the target named is T1, L-amino-acid oxidase (Homo sapiens, UniProt Q96RQ9).
T1 sequence (Q96RQ9 whole entry): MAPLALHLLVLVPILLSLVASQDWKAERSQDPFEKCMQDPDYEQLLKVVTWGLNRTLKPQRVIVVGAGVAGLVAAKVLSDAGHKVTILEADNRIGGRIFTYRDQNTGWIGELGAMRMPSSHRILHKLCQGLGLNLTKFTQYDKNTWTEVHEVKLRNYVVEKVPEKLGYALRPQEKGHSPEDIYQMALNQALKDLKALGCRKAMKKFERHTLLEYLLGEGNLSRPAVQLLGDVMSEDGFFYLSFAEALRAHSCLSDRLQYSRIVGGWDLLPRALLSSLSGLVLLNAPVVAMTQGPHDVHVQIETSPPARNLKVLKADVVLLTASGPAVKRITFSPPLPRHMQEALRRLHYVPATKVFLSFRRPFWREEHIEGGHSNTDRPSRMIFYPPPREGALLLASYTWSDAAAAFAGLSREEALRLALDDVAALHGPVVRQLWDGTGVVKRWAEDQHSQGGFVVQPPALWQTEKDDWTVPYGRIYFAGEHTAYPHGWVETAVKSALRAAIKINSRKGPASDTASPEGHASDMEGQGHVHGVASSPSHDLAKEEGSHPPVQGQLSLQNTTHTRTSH
As to the kind of experiment: Inhibition of C-terminal 6-His tagged recombinant human IL4I1 (Gln22 to His567 residues) expressed in CHO cells using Phe/Tyr/Trp as substrate assessed as inhibition of H2O2 production measured after 240 mins by Amplex red and horseradish peroxidase based fluorescence assay.

In general, EC50 refers to the concentration giving half of the maximal effect. On to `O=C1C(=O)N(C2C[C@@H]3C[C@@H]3C2)CCN1Cc1ccc(-c2nccs2)nn1` (stereo partly specified), for which the EC50 amounted to 23 nM.
